Data on one molecule can be found in US7858658B2, “Fluoro- and trifluoroalkyl-containing heterocyclic sulfonamide inhibitors of beta amyloid production and derivatives thereof” (Wyeth LLC, priority 2003, dated 2010).

One may read the pEC50 as the negative decadic logarithm of the EC50, by convention in mol/L. Low readings indicate a large EC50, high ones a small EC50.

Common to all, as to assay type: cell-based
Experiment [1] concerns amyloid precursor protein (APP) proteolysis. Description: Repressor Release Assay (RRA). The settings on record: all compounds tested at 20 μg/mL. How it is done:
The beta amyloid inhibitory activity of many of the compounds of the present invention has been determined using the Repressor Release Assay (RRA). See, Table 5 below. A compound is considered active in RRA if it leads to at least a 1.5 fold increase in luciferase activity at 20 μg/mL and is non-toxic.
The compounds generated as described in the Examples above are tested in the RRA in accordance with published techniques [Shuey, D. J., Sheiffele, P., Jones, D., Cockett, M. I., and Quinet, E. M. (1999), “Repressor release: a useful tool for monitoring amyloid precursor protein (APP) proteolysis in mammalian cells”, Society for Neuroscience Abstracts, Vol. 25, 29th Annual Meeting of Society for Neuroscience, Miami Beach, Fla., Oct. 23-28, 1999]. Briefly, this assay is performed as follows.
CHO-K1 cells are cultured in whole DMEM media (DMEM—High Glucose with 10% fetal bovine serum, 1% Non-essential Amino Acids, and 1% Penicillin-Streptomycin) at 37° C. with 5% CO2. Two million cells are plated into 10-cm dishes 24 hrs prior to transfection.
Transient transfections are completed as recommended by Gibco BRL using their Lipofectamine Plus® system. First, 6 μg of pRSVO-luc and 6 μg of APP-lacI construct DNA are added to 460 μL Opti-Mem transfection media and incubated with the 30 μL Plus® reagent for 15 minutes. Then, a lipid mixture of 40 μL Lipofectamine Plus® reagent and 460 μL Opti-Mem transfection media is incubated with the DNA-Plus reagent mixture for 15 minutes. During the DNA-lipid incubation, the CHO-K1 cells are washed once and covered in 5.0 mL DMEM media without Penicillin-Streptomycin. The DNA-lipid preparation is then layered onto these cells and incubated at 37° C. overnight.
One and one half million transfected cells per well (100 μL total volume) are plated into sterile, opaque Packard 96-well Cultur-Plates™ in clear DMEM whole media (DMEM—without phenol red) and incubated at 37° C. with 5% CO2 for 3-5 hours.
Compounds are diluted using two different protocols; one protocol is used for compounds supplied neat (weighed powder in vial) and the other protocol is used for compounds supplied in solution (20 mM in DMSO in 96-well plates). For both protocols, 25 mM Hepes and 25 mM Hepes/1% DMSO are prepared fresh to be used as diluent. The Hepes/DMSO is used as the diluent control on all experimental plates.
The following table depicts the steps for compound dilution (please note that the last step is the addition of compound to cells/media in tissue culture plate):
Because some compounds arrive in 96-well format at 20 mM, the following represents the protocol for their dilution (note that an average molecular weight of these compounds was used to calculate these dilutions and as above, the last step is the addition of compound to cells/media in tissue culture plate):
Once compounds are diluted, they are applied in duplicate on cells in tissue culture plates (prepared above). Cells are incubated with compound at 37° C. with 5% CO2 for an additional 36-48 hours.
Luciferase assays (the LucLite® reagent, Packard) are performed and are read on a Packard TopCount® instrument. Media is removed from each 96-well plate and replaced with 100 μL PBS per well (with Mg^2+ and Ca^2+). An equal volume (100 μL) of the LucLite® lysis/substrate buffer is added to each well and the plates are sealed and mixed in the dark on a rotary shaker for about 15 to about 30 minutes at room temperature. Luciferase readings are then taken on the TopCount® instrument. Measurements are expressed as relative light units (RLU) and are calculated and analyzed in the MS Excel® program as follows.
A compound is considered active in RRA if it leads to at least a 1.5 fold increase in luciferase activity at 20 μg/mL and is non-toxic, as determined by loss of signal (≦0.75 fold increase). Fold increase is the amount of luciferase activity (measured in relative light units) over diluent control. SEM represents the standard error of the mean for fold increase (not shown).

A further experiment concerns beta amyloid 42. In words: Aβ40/42 ELISA Assay, Aβ42. The settings on record: CHO cells carrying the APP-REP-NL plasmid, 22 hours. How it is done:
(§1) Compounds are diluted from DMSO stocks to 2 μM and below in a cell culture medium. Compounds are then applied to CHO cells carrying the APP-REP-NL plasmid [Sudhir et. al, J. Biolog. Chem. 267:25602-25608 (1992)] for a period of 22 hours. After the conditioning period, medium is collected, diluted in assay buffer containing protein, and samples, controls, and synthetic peptide standards are incubated on a prepared ELISA plate. Using a sandwich ELISA with antibodies specifically directed against the carboxyl terminus of beta amyloid 40 or 42 [analogous to the method reported by Haugabook et al., J. Neurosci. Methods 108:171-179 (2001) but using goat anti-mouse IgG1 (source: Southern Biotech) as the anchor, 6E10 as the capture antibody (Source: SENETEK), rabbit antiAβ40 and antiAβ42 (source: QCB) and APL-donkey anti-rabbit IgG (H+L, source: Southern Biotech) as the detection antibody], the effect of the compound treatment on the cellular production of extracellular beta amyloid is quantified. Cells treated with compound are subsequently incubated in cell culture medium containing […]. After a short incubation period, MTS/medium containing plates are read in a spectrophotometer to determine the extent to which compound toxicity affected the cell's metabolism and ability to synthesize beta amyloid. […]
On the technique in general: ELISA stands for enzyme-linked immunosorbent assay.

For the next experiment, the system named is beta amyloid 40. In words: Aβ40/42 ELISA Assay, Aβ40. Particulars: CHO cells carrying the APP-REP-NL plasmid, 22 hours. On the procedure: as §1

pEC50: −log10 of the molar value.

For `C[C@H](NC(=O)Cc1cc(F)cc(F)c1)C(=O)N[C@H](C(=O)OC(C)(C)C)c1ccccc1` [DAPT], the “RRA data: fold increase of APPI (luciferase activity over diluent control)” value in experiment [1] is listed as 18.5-28.1 fold increase. Besides, the pEC50 with beta amyloid 42 was 6.89; with beta amyloid 40 it was 6.77.
